# Results from US20150038435A1, “N-TERMINALLY MODIFIED OLIGOPEPTIDES AND USES THEREOF” (Novo Nordisk A/S, priority 2012, published 2015).
# Starred links: 1 amine or outer side, 2 acyl side, 3 side chain; linkers in the order of their positions; H or OH if unused. Non-standard residues stand in square brackets, D forms with d. Primed or numbered codes have the meaning given here. No end group written: not given here. *: point of attachment. γGlu = O=C(O)[C@H](CCC(=O)[*:2])N[*:1]; βAsp = O=C(O)[C@H](CC(=O)[*:2])N[*:1]; Palmitoyl = CCCCCCCCCCCCCCCC(=O)*; Myristoyl = CCCCCCCCCCCCCC(=O)*; Lauroyl = CCCCCCCCCCCC(=O)*; PEG12′ = not defined here
# How the values were obtained:
# [1] = test system: Trypsin; assay: Inhibition of enzymatic degradation of a model GLP-1 (FRET substrate) by trypsin; assay type: biochemical; details: for EC50: read-out: EC50 Trypsin (0.001 mg/ml), 0.001 mg/ml trypsin, 37° C.
# Excerpt: (§1) The use of Förster resonance energy transfer (FRET), also known as fluorescence resonance energy transfer, substrates to monitor activity of proteolytic enzymes is known in the field (for example Anjuere, F. et al. (1993). Biochem J 291 (Pt 3), 869-73).
# (§2) Model GLP-1 analogue was designed as FRET substrate by incorporation of 7-Methoxycoumarin-4-acetic acid (MCA) group as the donor chromophore and dinitrophenol group (DNP) as the acceptor chromophore.
# (§3) An assay following the increase in fluorescence as a function of time was established in 96 well format using Varioskan Flash Multimode Meter (Thermo Scientific). Each well contained 70 μl of Dulbecco's phosphate buffer saline (Invitrogen catalogue #14190-094), 10 μl of 100 μM GLP-1 FRET substrate, 10 μl of N-terminally acylated peptide or oligopeptide of the invention in varying concentration and 10 μl of a stock solution of an enzyme (chymotrypsin, trypsin, elastase, etc.). The incubations were performed at 37° C. Fluorescence (320 nm excitation wavelength and 405 nm emission wavelength) was measured immediately after addition of the enzyme to the 96 well plate and also every minute for at least the next 30 minutes. The concentration of the enzyme was optimized to allow determination of slopes for the time course of initial fluorescence increase with and without the N-terminally acylated peptides or oligopeptides of the invention. The slopes were determined by linear regression of the linear part of the fluorescence trace (for example, the first 10 min of the reaction). Each assay was performed in duplicate and average of the two traces was included in the calculations. The relative effect of N-terminally acylated peptide or oligopeptides of the invention on enzymatic degradation of GLP-1 FRET substrate was obtained by comparison of the slopes achieved by the same concentration of the N-terminally acylated peptide or oligopeptides. […] This was done by plotting the slopes achieved with different concentrations of the N-terminally acylated peptide or oligopeptides of the invention as a function of their concentrations and fitting the experimental results using, for example, sigmoidal logistic regression (2 parameters, Sigma Plot v 11). Inhibition constants for the interaction between the N-terminally acylated peptide or oligopeptides of the invention and proteolytic enzymes were also obtained by performing the assay described above with varying concentrations of the inhibitor and substrate and analyzing the results, for example, by double reciprocal transformation as known to the person skilled in the art and described for example in Hubalek, F. et al., J. Med. Chem. 47, 1760-1766 (2004).
# (§4) The EC50 was determined for the following compounds. EC50±standard error is reported if the results of at least 3 independent measurements were available.
# [2] = test system: Chymotrypsin; assay: Inhibition of enzymatic degradation of a model GLP-1 (FRET substrate) by chymotrypsin; assay type: biochemical; details: for EC50: read-out: EC50 Chymotrypsin (0.001 mg/ml), 0.001 mg/ml chymotrypsin, 37° C., ± standard error if at least 3 measurements
# Excerpt: as §1, §2, §3, §4
# [3] = compound 0.1 mM, buffer containing 8% DMSO
substance,measurement,setting,value
N-hexadecanoyl-γGlu-D-Ala-D-Ala-D-Pro-D-Phe-OH [Example 157],EC50,[1],88 µM
same,EC50,[2],57 µM
N-tetradecanoyl-Glu-Ala-Ala-Pro-Trp-OH [Example 187],EC50,[1],130 µM
same,EC50,[2],14 µM
N-tetradecanoyl-γGlu-Ala-Pro-Phe-OH [Example 181],EC50,[2],300 µM
N-tetradecanoyl-Ala-Ala-Ala-Ala-Pro-Phe-OH [Example 140],EC50,[1],374 µM
same,EC50,[2],28 µM
N-dodecanoyl-Thr-Ala-Ala-Pro-Phe-OH [Example 172],EC50,[1],401 µM
same,EC50,[2],132 µM
N-tetradecanoyl-Leu-Ala-Ala-Pro-Tyr-OH [Example 159],EC50,[1],122 µM
same,EC50,[2],35 µM
N-dodecanoyl-βAla-βAla-Pro-Phe-Pro-OH [Example 6],Slope of the initial increase in fluorescence obtained during incubation with 0.001 mg/ml Trypsin,[1]; compound 1 mM,0.35
same,Slope of the initial increase in fluorescence obtained during incubation with 0.001 mg/ml Chymotrypsin,[2]; compound 1 mM,0.24
N-octadecanoyl-γGlu-Ala-Ala-Pro-Phe-OH [Example 160],EC50,[1],16 µM
same,EC50,[2],17 µM
N-dodecanoyl-γGlu-His-Ala-Ala-Pro-Tyr-OH [Example 190],EC50,[2],> 500 µM
N-tetradecanoyl-Arg-His-Ala-Arg-Pro-Phe-OH [Example 197],EC50,[1],16 µM
same,EC50,[2],2 µM
N-tetradecanoyl-D-His-D-Ala-D-Arg-D-Pro-D-Phe-OH [Example 195],EC50,[1],7 µM
same,EC50,[2],17 µM
N-tetradecanoyl-γGlu-D-Ala-D-Ala-D-Pro-D-Phe-OH [Example 156],EC50,[1],> 500 µM
same,EC50,[2],428 µM
N-tetradecanoyl-Glu-Ala-Ala-Pro-D-Phe-OH [Example 174],EC50,[2],211 µM
N-tetradecanoyl-His-Ala-Ala-Pro-Phe-OH [Example 166],EC50,[1],69 µM
same,EC50,[2],61 µM
N-tetradecanoyl-γGlu-Ala-Pro-Trp-OH (Myristoyl-[γGlu]APW-OH; SMILES CCCCCCCCCCCCCC(=O)N[C@@H](CCC(=O)N[C@@H](C)C(=O)N1CCC[C@H]1C(=O)N[C@@H](Cc1c[nH]c2ccccc12)C(=O)O)C(=O)O) [Example 176],EC50,[1],63 µM
same,EC50,[2],105 µM
N-tetradecanoyl-His-Ala-Trp-Pro-Phe-OH [Example 192],EC50,[1],303 µM
same,EC50,[2],34 µM
N-hexadecanoyl-Glu-Ala-Ala-Pro-D-Phe-OH [Example 186],EC50,[2],56 µM
N-hexadecanoyl-γGlu-Ala-Pro-Phe-OH (Palmitoyl-[γGlu]APF-OH; SMILES CCCCCCCCCCCCCCCC(=O)N[C@@H](CCC(=O)N[C@@H](C)C(=O)N1CCC[C@H]1C(=O)N[C@@H](Cc1ccccc1)C(=O)O)C(=O)O) [Example 149],EC50,[1],57 µM
same,EC50,[2],48 µM
N-tetradecanoyl-γGlu-γGlu-Phe-Phe-OH [Example 171],EC50,[2],452 µM
N-tetradecanoyl-D-Ala-D-Ala-D-Pro-D-Phe-OH [Example 184],EC50,[1],38 µM
same,EC50,[2],69 µM
N-tetradecanoyl-Thr-Ala-Ala-Pro-Tyr-OH [Example 158],EC50,[1],112 µM
same,EC50,[2],58 µM
N-tetradecanoyl-Glu-Ala-Ala-Pro-Phe-OH [Example 163] (Myristoyl-EAAPF-OH; SMILES CCCCCCCCCCCCCC(=O)N[C@@H](CCC(=O)O)C(=O)N[C@@H](C)C(=O)N[C@@H](C)C(=O)N1CCC[C@H]1C(=O)N[C@@H](Cc1ccccc1)C(=O)O),EC50,[1],271 µM
same,EC50,[2],94 µM
N-hexadecanoyl-γGlu-Ala-Ala-Pro-Phe-OH [Example 32],EC50,[1],66 µM
same,EC50,[2],29 ± 4 µM
N-hexadecanoyl-Ala-Ala-Pro-Phe-OH (Palmitoyl-AAPF-OH) [Example 29],EC50,[1],> 500 µM
same,EC50,[2],23 ± 2 µM
N-dodecanoyl-Gly-Ala-Pro-Tyr-OH [Example 37],Slope of the initial increase in fluorescence obtained during incubation with 0.001 mg/ml Trypsin,[1]; [3],1.78
same,Slope of the initial increase in fluorescence obtained during incubation with 0.001 mg/ml Chymotrypsin,[2]; [3],0.66
N-hexadecanoyl-γGlu-Ala-Ala-Pro-Phe-OH [Example 188],EC50,[1],67 µM
same,EC50,[2],71 µM
PEG12-Ala-Ala-Pro-Phe-OH ([PEG12′]AAPF-OH) [Example 167],EC50,[2],> 500 µM
N-tetradecanoyl-Lys-Ala-Arg-Pro-Phe-OH [Example 193],EC50,[1],169 µM
same,EC50,[2],90 µM
N-dodecanoyl-Ala-Ala-Ala-Ala-Ala-Pro-Phe-OH [Example 141],EC50,[1],187 µM
same,EC50,[2],57 µM
N-tetradecanoyl-Ala-Ala-Pro-D-Phe-OH [Example 185],EC50,[1],44 µM
same,EC50,[2],73 µM
N-hexadecanoyl-Glu-Ala-Ala-Pro-D-Phe-OH [Example 144],EC50,[1],72 µM
same,EC50,[2],40 µM
N-hexadecanoyl-Thr-Ala-Ala-Pro-Phe-OH [Example 175],EC50,[1],31 µM
same,EC50,[2],17 µM
N-tetradecanoyl-bAsp-Ala-Pro-Phe-OH (Myristoyl-[βAsp]APF-OH; SMILES CCCCCCCCCCCCCC(=O)N[C@@H](CC(=O)N[C@@H](C)C(=O)N1CCC[C@H]1C(=O)N[C@@H](Cc1ccccc1)C(=O)O)C(=O)O) [Example 165],EC50,[1],120 µM
same,EC50,[2],154 µM
N-dodecanoyl-Ile-Ala-Ala-Pro-Tyr-OH [Example 40],Slope of the initial increase in fluorescence obtained during incubation with 0.001 mg/ml Trypsin,[1]; [3],1.31
same,Slope of the initial increase in fluorescence obtained during incubation with 0.001 mg/ml Chymotrypsin,[2]; [3],0.41
N-hexadecanoyl-γGlu-DAla-DPro-DPhe-OH [Example 155],EC50,[1],76 µM
same,EC50,[2],56 µM
N-tetradecanoyl-γGlu-Ala-Arg-Pro-Phe-OH [Example 179],EC50,[1],80 µM
same,EC50,[2],84 µM
N-tetradecanoyl-Leu-Ala-Ala-Pro-Tyr-OH [Example 142],EC50,[1],37 µM
same,EC50,[2],20 µM
N-tetradecanoyl-γGlu-Ala-Pro-D-Trp-OH [Example 177],EC50,[1],200 µM
same,EC50,[2],95 µM
N-icosanoyl-γGlu-Ala-Ala-Pro-Phe-OH [Example 161],EC50,[1],7 µM
same,EC50,[2],4 µM
N-tetradecanoyl-bAsp-Ala-Ala-Pro-Phe-OH [Example 164],EC50,[1],343 µM
same,EC50,[2],54 µM
N-tetradecanoyl-γGlu-γGlu-Ala-Pro-Phe-OH [Example 169],EC50,[2],287 µM
N-dodecanoyl-Leu-Thr-Trp-Pro-Tyr-OH [Example 154],EC50,[1],151 µM
same,EC50,[2],27 µM
N-tetradecanoy-γGlu-His-Ala-Ala-Pro-Tyr-OH [Example 191],EC50,[1],177 µM
same,EC50,[2],136 µM
N-dodecanoyl-Lys-Ala-Ala-Pro-Tyr-OH [Example 44],Slope of the initial increase in fluorescence obtained during incubation with 0.001 mg/ml Trypsin,[1]; [3],0.96
same,Slope of the initial increase in fluorescence obtained during incubation with 0.001 mg/ml Chymotrypsin,[2]; [3],0.00
N-tetradecanoyl-Glu-Ala-Ala-Pro-Phe-OH [Example 162],EC50,[1],58 µM
same,EC50,[2],94 µM
N-tetradecanoyl-γGlu-Ala-Pro-D-Phe-OH [Example 168],EC50,[2],377 µM
N-tetradecanoyl-γGlu-D-Ala-D-Pro-D-Phe-OH [Example 183],EC50,[2],386 µM
N-tetradecanoyl-Glu-Ala-Pro-Phe-OH (Myristoyl-EAPF-OH; SMILES CCCCCCCCCCCCCC(=O)N[C@@H](CCC(=O)O)C(=O)N[C@@H](C)C(=O)N1CCC[C@H]1C(=O)N[C@@H](Cc1ccccc1)C(=O)O) [Example 152],EC50,[2],293 µM
N-tetradecanoyl-Thr-Ala-Ala-Pro-Phe-OH [Example 173],EC50,[1],93 µM
same,EC50,[2],51 µM
N-hexadecanoyl-γGlu-D-Ala-D-Pro-D-Phe-OH [Example 182],EC50,[1],33 µM
same,EC50,[2],67 µM
N-tetradecanoyl-Leu-betaAla-Ala-Pro-DPhe-OH [Example 145],EC50,[1],43 µM
same,EC50,[2],83 µM
N-dodecanoyl-Ala-Pro-Phe-OH [Example 35],EC50,[2],182 µM
N-tetradecanoyl-γGlu-His-Ala-Arg-Pro-Phe-OH [Example 194],EC50,[1],84 µM
same,EC50,[2],19 µM
N-tetradecanoyl-γGlu-γGlu-Pro-Phe-OH [Example 170],EC50,[2],> 500 µM
N-dodecanoyl-γGlu-Ala-Ala-Pro-Arg-Pro-OH [Example 27],EC50,[2],> 500 µM
N-dodecanoyl-Ala-Ala-Pro-His-OH (Lauroyl-AAPH-OH; SMILES CCCCCCCCCCCC(=O)N[C@@H](C)C(=O)N[C@@H](C)C(=O)N1CCC[C@H]1C(=O)N[C@@H](Cc1c[nH]cn1)C(=O)O) [Example 180],EC50,[2],> 500 µM
